Measurements reported in publication PMC5766609 (Scientific Reports, 2018).
Residues, ends and D or L forms follow the SMILES beside them.

Key:
[1] = target: T1, human glucagon receptor (GCGR) (Homo sapiens, UniProt P47871); experiment: cAMP assay on CHO-JumpIn cells stably transfected with human glucagon receptor (HitHunter cAMP); assay type: cell-based; details: for EC50: Table 2, cAMP accumulation, CHO-JumpIn cells with human GCGR, buffer PBS, 0.1% BSA, 100 μM RO 20-1724, 20% serum, 1 hr at RT, value ± spread, read-out: EC50 GCGR;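 as to all read-outs here: peptides tested as 4-fold serial dilutions starting from a 2 µM solution, cells exposed 1 hr at RT in darkness, cAMP quantified against a cAMP standard curve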
T1 construct: expressed in transfected cells; host or cells: CHO-JumpIn cells, stably transfected
Protocol: (§1) Briefly, a 2 μM solution of peptide was prepared, and 4-fold serial dilutions were made. 150 nL of the above titration was then dispensed into an Optiplate384 using an Echo555. […] The HitHunter® cAMP Assay kit calibration curve was prepared following the manufacturer’s protocol (DiscoveRx-90-0075L). 30,000 cells/well were added to the peptides, spun briefly at 500 rpm for 15 s and incubated at RT in the dark for 1 hr. The assay was developed as per the manufacturer’s instructions. cAMP accumulation due to GLP1R agonism or GCGR agonism was measured using an EnVision platereader (PerkinElmer), and calibrated using the cAMP standard curve. Data were analyzed using Assay Data Analyzer (ADA).

[2] = target: T2, human GLP-1 receptor (GLP1R) (Homo sapiens, UniProt P43220); experiment: cAMP assay on CHO-JumpIn cells stably transfected with human GLP-1 receptor (HitHunter cAMP); assay type: cell-based; details: Table 2, cAMP accumulation, buffer PBS, 0.1% BSA, 100 μM RO 20-1724, 20% serum, 1 hr at RT, value ± spread, read-out: EC50 GLP1R;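 also: peptides tested as 4-fold serial dilution series, cells exposed 1 hr at RT in the dark, cAMP quantified against a cAMP standard calibration curve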
T2 construct: expressed in transfected cells; host or cells: CHO-JumpIn cells, stably transfected
T2 sequence (P43220 24-463): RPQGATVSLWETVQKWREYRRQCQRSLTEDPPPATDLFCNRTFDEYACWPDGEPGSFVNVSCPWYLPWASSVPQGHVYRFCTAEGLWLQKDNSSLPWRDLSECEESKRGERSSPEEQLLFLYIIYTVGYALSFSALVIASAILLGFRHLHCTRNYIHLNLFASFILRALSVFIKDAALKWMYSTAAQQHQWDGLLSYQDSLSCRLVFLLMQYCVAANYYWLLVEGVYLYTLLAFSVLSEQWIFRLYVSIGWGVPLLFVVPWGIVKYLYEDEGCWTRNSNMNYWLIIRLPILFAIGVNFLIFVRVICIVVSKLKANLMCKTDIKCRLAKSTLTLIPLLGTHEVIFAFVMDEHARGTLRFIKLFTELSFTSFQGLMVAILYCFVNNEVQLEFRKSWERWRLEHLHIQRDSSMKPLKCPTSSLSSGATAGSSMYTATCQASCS
Protocol: as §1

T1 sequence (P47871 26-477): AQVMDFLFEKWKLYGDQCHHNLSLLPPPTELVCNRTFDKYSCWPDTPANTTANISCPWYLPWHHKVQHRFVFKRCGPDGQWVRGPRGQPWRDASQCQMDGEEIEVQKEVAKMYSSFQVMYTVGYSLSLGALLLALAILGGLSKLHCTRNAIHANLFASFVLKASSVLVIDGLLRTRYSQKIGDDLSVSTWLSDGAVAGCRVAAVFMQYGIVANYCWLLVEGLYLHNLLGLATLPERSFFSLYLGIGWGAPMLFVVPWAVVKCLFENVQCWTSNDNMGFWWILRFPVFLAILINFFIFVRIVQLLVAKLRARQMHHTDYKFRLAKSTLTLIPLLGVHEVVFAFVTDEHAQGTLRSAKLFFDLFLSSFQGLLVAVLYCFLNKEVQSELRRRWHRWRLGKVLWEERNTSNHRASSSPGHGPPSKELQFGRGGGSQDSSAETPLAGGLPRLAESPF

SMILES	EC50 [1]	EC50 [2]	activation of the receptors (in words) ([1]; both receptors (GCGR and GLP1R) not activated)
CSCC[C@H](NC(=O)[C@H](CC(C)C)NC(=O)[C@H](Cc1c[nH]c2ccccc12)NC(=O)[C@H](CCC(N)=O)NC(=O)[C@@H](NC(=O)[C@H](Cc1ccccc1)NC(=O)[C@H](CC(=O)O)NC(=O)[C@H](CCC(N)=O)NC(=O)[C@H](C)NC(=O)[C@H](CCCNC(=N)N)NC(=O)[C@H](CCCNC(=N)N)NC(=O)[C@H](CO)NC(=O)[C@H](CC(=O)O)NC(=O)[C@H](CC(C)C)NC(=O)[C@H](Cc1c[nH]c2ccccc12)NC(=O)[C@H](Cc1c[nH]cn1)NC(=O)[C@H](CO)NC(=O)[C@H](Cc1ccc(O)cc1)NC(=O)[C@H](CC(=O)O)NC(=O)[C@H](CO)NC(=O)[C@H](Cc1ccccc1)NC(=O)[C@H](Cc1ccccc1)NC(=O)[C@@H](NC(=O)CNC(=O)[C@H](CCC(N)=O)NC(=O)[C@H](CO)NC(=O)[C@@H](N)Cc1c[nH]cn1)[C@@H](C)O)C(C)C)C(=O)N[C@@H](CC(N)=O)C(=O)N[C@H](C(N)=O)[C@@H](C)O [Peptide 22]	29 ± 1 pM	> 200000 pM	–
CC(C)C[C@H](NC(=O)[C@H](Cc1ccc(O)cc1)NC(=O)[C@H](CCCCN)NC(=O)[C@H](CO)NC(=O)[C@H](Cc1ccc(O)cc1)NC(=O)[C@H](CC(=O)O)NC(=O)[C@H](CO)NC(=O)[C@@H](NC(=O)[C@H](Cc1ccccc1)NC(=O)[C@@H](NC(=O)CNC(=O)[C@H](CCC(N)=O)NC(=O)[C@H](CO)NC(=O)[C@@H](N)Cc1c[nH]cn1)[C@@H](C)O)[C@@H](C)O)C(=O)N[C@@H](CC(=O)O)C(=O)N[C@@H](Cc1c[nH]c2ccccc12)C(=O)N[C@@H](CCCNC(=N)N)C(=O)N[C@@H](CCCNC(=N)N)C(=O)N[C@@H](C)C(=O)N[C@@H](CCC(N)=O)C(=O)N[C@@H](CC(=O)O)C(=O)N[C@@H](Cc1ccccc1)C(=O)N[C@H](C(=O)N[C@@H](CCC(N)=O)C(=O)N[C@@H](Cc1c[nH]c2ccccc12)C(=O)N[C@@H](CC(C)C)C(=O)N[C@@H](CCC(N)=O)C(=O)N[C@@H](CC(N)=O)C(=O)N[C@H](C(N)=O)[C@@H](C)O)C(C)C [Peptide 23]	19 ± 1 pM	17 ± 1 pM	–
CC(C)C[C@H](NC(=O)[C@H](Cc1ccc(O)cc1)NC(=O)[C@H](CCCCN)NC(=O)[C@H](CO)NC(=O)[C@H](Cc1ccc(O)cc1)NC(=O)[C@H](CC(=O)O)NC(=O)[C@H](CO)NC(=O)[C@@H](NC(=O)[C@H](Cc1ccccc1)NC(=O)[C@@H](NC(=O)CNC(=O)[C@H](CCC(N)=O)NC(=O)[C@H](CO)NC(=O)[C@@H](N)Cc1c[nH]cn1)[C@@H](C)O)[C@@H](C)O)C(=O)N[C@@H](CC(=O)O)C(=O)N[C@@H](CO)C(=O)N[C@@H](CCCCN)C(=O)N[C@@H](CCCNC(=N)N)C(=O)N[C@@H](C)C(=O)N[C@@H](Cc1c[nH]cn1)C(=O)N[C@@H](CC(=O)O)C(=O)N[C@@H](Cc1ccccc1)C(=O)N[C@H](C(=O)N[C@@H](CCC(N)=O)C(=O)N[C@@H](Cc1c[nH]c2ccccc12)C(=O)N[C@@H](CC(C)C)C(=O)N[C@@H](CC(C)C)C(=O)N[C@@H](CC(N)=O)C(=O)N[C@H](C(N)=O)[C@@H](C)O)C(C)C [Peptide 24] (H-HSQGTFTSDYSKYLDSKRAHDFVQWLLNT-NH2)	26 ± 1 pM	18 ± 1 pM	–
CC[C@H](C)[C@H](NC(=O)[C@H](Cc1c[nH]c2ccccc12)NC(=O)[C@H](Cc1ccccc1)NC(=O)[C@H](CC(=O)O)NC(=O)[C@H](CCC(N)=O)NC(=O)[C@H](C)NC(=O)[C@H](CCCNC(=N)N)NC(=O)[C@H](CCCNC(=N)N)NC(=O)[C@H](CO)NC(=O)[C@H](CC(=O)O)NC(=O)[C@H](CC(C)C)NC(=O)[C@H](Cc1ccc(O)cc1)NC(=O)[C@H](CCCCN)NC(=O)[C@H](CO)NC(=O)[C@H](Cc1ccc(O)cc1)NC(=O)[C@H](CC(=O)O)NC(=O)[C@H](CO)NC(=O)[C@@H](NC(=O)[C@H](Cc1ccccc1)NC(=O)[C@@H](NC(=O)CNC(=O)[C@H](CCC(N)=O)NC(=O)[C@H](CO)NC(=O)[C@@H](N)Cc1c[nH]cn1)[C@@H](C)O)[C@@H](C)O)C(=O)N[C@@H](CC(=O)O)C(=O)N[C@@H](CC(C)C)C(=O)N[C@@H](CCSC)C(=O)N[C@@H](CC(N)=O)C(=O)N[C@H](C(N)=O)[C@@H](C)O [Peptide 25]	> 20000 pM	> 20000 pM	did not activate
